Data as given in ChEMBL document CHEMBL1201861, “Genomics of Drug Sensitity in Cancer screening data, Wellcome Trust Sanger Institute”.

Tests used:
Assay in all cases: cells
DoTc2-4510 = format: functional, cell-based, Homo sapiens; settings: Homo sapiens, DoTc2-4510
RD = format: functional, cell-based, Homo sapiens; settings: Homo sapiens, RD
Description: SANGER: Inhibition of human RD cell growth in a cell viability assay.

NUGC-3 = format: functional, cell-based, Homo sapiens; settings: Homo sapiens, NUGC-3
Description: SANGER: Inhibition of human NUGC-3 cell growth in a cell viability assay.

L-363 = format: functional, cell-based; settings: Homo sapiens
Description: SANGER: Inhibition of human L-363 cell growth in a cell viability assay.

GAK = format: functional, cell-based, Homo sapiens; settings: Homo sapiens, GAK
Description: SANGER: Inhibition of human GAK cell growth in a cell viability assay.

HCE-T = format: functional, cell-based, Homo sapiens; settings: Homo sapiens, HCE-T
Description: SANGER: Inhibition of human HCE-T cell growth in a cell viability assay.

no-11 = format: functional, cell-based, Homo sapiens; settings: Homo sapiens
Description: SANGER: Inhibition of human no-11 cell growth in a cell viability assay.

LCLC-97TM1 = format: functional, cell-based, Homo sapiens; settings: Homo sapiens, LCLC-97TM1
Description: SANGER: Inhibition of human LCLC-97TM1 cell growth in a cell viability assay.

RCC10RGB = format: functional, cell-based, Homo sapiens; settings: Homo sapiens, RCC10RGB
Description: SANGER: Inhibition of human RCC10RGB cell growth in a cell viability assay.

D-247MG = format: functional, cell-based, Homo sapiens; settings: Homo sapiens, D-247MG
Description: SANGER: Inhibition of human D-247MG cell growth in a cell viability assay.

NCI-H2170 = format: functional, cell-based, Homo sapiens; settings: Homo sapiens, NCI-H2170
Description: SANGER: Inhibition of human NCI-H2170 cell growth in a cell viability assay.

ES8 = format: functional, cell-based, Homo sapiens; settings: Homo sapiens, ES8
Description: SANGER: Inhibition of human ES8 cell growth in a cell viability assay.

NCI-H747 = format: functional, cell-based; settings: Homo sapiens
Description: SANGER: Inhibition of human NCI-H747 cell growth in a cell viability assay.

TE-10 = format: functional, cell-based, Homo sapiens; settings: Homo sapiens, TE-10
Description: SANGER: Inhibition of human TE-10 cell growth in a cell viability assay.

RXF 393 = format: functional, cell-based; settings: Homo sapiens
Description: SANGER: Inhibition of human RXF393 cell growth in a cell viability assay.

COLO-320-HSR = format: functional, cell-based; settings: Homo sapiens
Description: SANGER: Inhibition of human COLO-320-HSR cell growth in a cell viability assay.

MDA-MB-157 = format: functional, cell-based, Homo sapiens; settings: Homo sapiens, MDA-MB-157
Description: SANGER: Inhibition of human MDA-MB-157 cell growth in a cell viability assay.

ChaGo-K-1 = format: functional, cell-based; settings: Homo sapiens
Description: SANGER: Inhibition of human ChaGo-K-1 cell growth in a cell viability assay.

ML-2 = format: functional, cell-based; settings: Homo sapiens
Description: SANGER: Inhibition of human ML-2 cell growth in a cell viability assay.

WM-115 = format: functional, cell-based, Homo sapiens; settings: Homo sapiens, WM-115
Description: SANGER: Inhibition of human WM-115 cell growth in a cell viability assay.

KM12 = format: functional, cell-based, Homo sapiens; settings: Homo sapiens, KM12
Description: SANGER: Inhibition of human KM12 cell growth in a cell viability assay.

MDA-MB-453 = format: functional, cell-based, Homo sapiens; settings: Homo sapiens, MDA-MB-453
Description: SANGER: Inhibition of human MDA-MB-453 cell growth in a cell viability assay.

DU-4475 = format: functional, cell-based; settings: Homo sapiens
Description: SANGER: Inhibition of human DU-4475 cell growth in a cell viability assay.

HOS = format: functional, cell-based, Homo sapiens; settings: Homo sapiens, HOS
Description: SANGER: Inhibition of human HOS cell growth in a cell viability assay.

Daoy = format: functional, cell-based, Homo sapiens; settings: Homo sapiens, Daoy
Description: SANGER: Inhibition of human Daoy cell growth in a cell viability assay.

MKN-28 = format: functional, cell-based, Homo sapiens; settings: Homo sapiens, MKN-28
Description: SANGER: Inhibition of human MKN28 cell growth in a cell viability assay.

ES6 = format: functional, cell-based, Homo sapiens; settings: Homo sapiens, ES6
Description: SANGER: Inhibition of human ES6 cell growth in a cell viability assay.

SK-LMS-1 = format: functional, cell-based, Homo sapiens; settings: Homo sapiens, SK-LMS-1
Description: SANGER: Inhibition of human SK-LMS-1 cell growth in a cell viability assay.

CAL-12T = format: functional, cell-based, Homo sapiens; settings: Homo sapiens, CAL-12T
Description: SANGER: Inhibition of human CAL-12T cell growth in a cell viability assay.

BB65-RCC = format: functional, cell-based, Homo sapiens; settings: Homo sapiens, BB65-RCC
Description: SANGER: Inhibition of human BB65-RCC cell growth in a cell viability assay.

H4 = format: functional, cell-based; settings: Homo sapiens
Description: SANGER: Inhibition of human H4 cell growth in a cell viability assay.

CAL-85-1 = format: functional, cell-based; settings: Homo sapiens
Description: SANGER: Inhibition of human CAL-85-1 cell growth in a cell viability assay.

HCC70 = format: functional, cell-based, Homo sapiens; settings: Homo sapiens, HCC70
Description: SANGER: Inhibition of human HCC70 cell growth in a cell viability assay.

LS-123 = format: functional, cell-based, Homo sapiens; settings: Homo sapiens, LS-123
Description: SANGER: Inhibition of human LS-123 cell growth in a cell viability assay.

SF-295 = format: functional, cell-based, Homo sapiens; settings: Homo sapiens, SF-295; read-out: IC50
Description: SANGER: Inhibition of human SF295 cell growth in a cell viability assay.

A-427 = format: functional, cell-based, Homo sapiens; settings: Homo sapiens, A-427
Description: SANGER: Inhibition of human A427 cell growth in a cell viability assay.

HL-60 = format: functional, cell-based; settings: Homo sapiens
Description: SANGER: Inhibition of human HL-60 cell growth in a cell viability assay.

KNS-42 = format: functional, cell-based, Homo sapiens; settings: Homo sapiens, KNS-42
Description: SANGER: Inhibition of human KNS-42 cell growth in a cell viability assay.

SCH = format: functional, cell-based, Homo sapiens; settings: Homo sapiens, SCH
Description: SANGER: Inhibition of human SCH cell growth in a cell viability assay.

SK-UT-1 = format: functional, cell-based, Homo sapiens; settings: Homo sapiens, SK-UT-1
Description: SANGER: Inhibition of human SK-UT-1 cell growth in a cell viability assay.

A704 = format: functional, cell-based, Homo sapiens; settings: Homo sapiens, A704
Description: SANGER: Inhibition of human A704 cell growth in a cell viability assay.

MC-IXC = format: functional, cell-based, Homo sapiens; settings: Homo sapiens, MC-IXC
Description: SANGER: Inhibition of human MC-IXC cell growth in a cell viability assay.

SHP77 = format: functional, cell-based, Homo sapiens, SHP-77; settings: Homo sapiens, SHP77
Description: SANGER: Inhibition of human SHP-77 cell growth in a cell viability assay.

NCI-H2405 = format: functional, cell-based, Homo sapiens; settings: Homo sapiens, NCI-H2405
Description: SANGER: Inhibition of human NCI-H2405 cell growth in a cell viability assay.

CAL-33 = format: functional, cell-based, Homo sapiens; settings: Homo sapiens, CAL-33
Description: SANGER: Inhibition of human CAL-33 cell growth in a cell viability assay.

SW1463 = format: functional, cell-based, Homo sapiens; settings: Homo sapiens, SW1463
Description: SANGER: Inhibition of human SW1463 cell growth in a cell viability assay.

COR-L88 = format: functional, cell-based; settings: Homo sapiens
Description: SANGER: Inhibition of human COR-L88 cell growth in a cell viability assay.

KNS-81-FD = format: functional, cell-based, Homo sapiens; settings: Homo sapiens, KNS-81-FD
Description: SANGER: Inhibition of human KNS-81-FD cell growth in a cell viability assay.

NCI-H727 = format: functional, cell-based, Homo sapiens; settings: Homo sapiens, NCI-H727
Description: SANGER: Inhibition of human NCI-H727 cell growth in a cell viability assay.

TE-1 = format: functional, cell-based, Homo sapiens; settings: Homo sapiens, TE-1
Description: SANGER: Inhibition of human TE-1 cell growth in a cell viability assay.

AM-38 = format: functional, cell-based, Homo sapiens; settings: Homo sapiens, AM-38
Description: SANGER: Inhibition of human AM-38 cell growth in a cell viability assay.

NCI-H1304 = format: functional, cell-based; settings: Homo sapiens
Description: SANGER: Inhibition of human NCI-H1304 cell growth in a cell viability assay.

## CC(=O)O[C@@H]1[C@@H](OC(C)=O)[C@@H](O)[C@H](Oc2c(-c3ccc(O)cc3)oc3cc(O)cc(O)c3c2=O)O[C@H]1C
DoTc2-4510
  IC50: > 10 µM
RD
  IC50: > 10 µM
NUGC-3
  IC50: > 10 µM
L-363
  IC50: > 10 µM
GAK
  IC50: > 10 µM
HCE-T
  IC50: > 10 µM
no-11
  IC50: > 10 µM
LCLC-97TM1
  IC50: > 10 µM
RCC10RGB
  IC50: > 10 µM
D-247MG
  IC50: > 10 µM
NCI-H2170
  IC50: > 10 µM
ES8
  IC50: > 10 µM
NCI-H747
  IC50: > 10 µM
TE-10
  IC50: > 10 µM
RXF 393
  IC50: > 10 µM
COLO-320-HSR
  IC50: > 10 µM
MDA-MB-157
  IC50: > 10 µM
ChaGo-K-1
  IC50: > 10 µM
ML-2
  IC50: > 10 µM
WM-115
  IC50: > 10 µM
KM12
  IC50: > 10 µM
MDA-MB-453
  IC50: > 10 µM
DU-4475
  IC50: 7.65 µM
HOS
  IC50: > 10 µM
Daoy
  IC50: > 10 µM
MKN-28
  IC50: > 10 µM
ES6
  IC50: > 10 µM
SK-LMS-1
  IC50: > 10 µM
CAL-12T
  IC50: > 10 µM
BB65-RCC
  IC50: > 10 µM
H4
  IC50: > 10 µM
CAL-85-1
  IC50: > 10 µM
HCC70
  IC50: > 10 µM
LS-123
  IC50: > 10 µM
SF-295
  IC50: > 10 µM
A-427
  IC50: > 10 µM
HL-60
  IC50: > 10 µM
KNS-42
  IC50: > 10 µM
SCH
  IC50: > 10 µM
SK-UT-1
  IC50: > 10 µM
A704
  IC50: > 10 µM
MC-IXC
  IC50: > 10 µM
SHP77
  IC50: > 10 µM
NCI-H2405
  IC50: > 10 µM
CAL-33
  IC50: > 10 µM
SW1463
  IC50: > 10 µM
COR-L88
  IC50: > 10 µM
KNS-81-FD
  IC50: > 10 µM
NCI-H727
  IC50: > 10 µM
TE-1
  IC50: > 10 µM
AM-38
  IC50: > 10 µM
NCI-H1304
  IC50: > 10 µM

## O=c1cc(-c2cccc3c2Sc2ccccc2S3)oc(N2CCOCC2)c1 [KU-55933]
DoTc2-4510
  IC50: > 10 µM
RD
  IC50: > 10 µM
NUGC-3
  IC50: > 10 µM
L-363
  IC50: > 10 µM
GAK
  IC50: > 10 µM
HCE-T
  IC50: > 10 µM
no-11
  IC50: > 10 µM
LCLC-97TM1
  IC50: > 10 µM
RCC10RGB
  IC50: > 10 µM
D-247MG
  IC50: > 10 µM
NCI-H2170
  IC50: > 10 µM
ES8
  IC50: > 10 µM
NCI-H747
  IC50: > 10 µM
TE-10
  IC50: > 10 µM
RXF 393
  IC50: > 10 µM
COLO-320-HSR
  IC50: > 10 µM
MDA-MB-157
  IC50: > 10 µM
ChaGo-K-1
  IC50: > 10 µM
WM-115
  IC50: > 10 µM
KM12
  IC50: 9.21 µM
MDA-MB-453
  IC50: > 10 µM
DU-4475
  IC50: > 10 µM
HOS
  IC50: > 10 µM
Daoy
  IC50: > 10 µM
MKN-28
  IC50: > 10 µM
ES6
  IC50: > 10 µM
SK-LMS-1
  IC50: > 10 µM
CAL-12T
  IC50: > 10 µM
BB65-RCC
  IC50: > 10 µM
H4
  IC50: > 10 µM
CAL-85-1
  IC50: > 10 µM
HCC70
  IC50: > 10 µM
LS-123
  IC50: > 10 µM
SF-295
  IC50: > 10 µM
A-427
  IC50: > 10 µM
HL-60
  IC50: > 10 µM
KNS-42
  IC50: > 10 µM
SCH
  IC50: > 10 µM
SK-UT-1
  IC50: > 10 µM
A704
  IC50: > 10 µM
MC-IXC
  IC50: > 10 µM
SHP77
  IC50: > 10 µM
NCI-H2405
  IC50: > 10 µM
CAL-33
  IC50: > 10 µM
SW1463
  IC50: > 10 µM
KNS-81-FD
  IC50: > 10 µM
NCI-H727
  IC50: > 10 µM
TE-1
  IC50: > 10 µM
AM-38
  IC50: > 10 µM
NCI-H1304
  IC50: > 10 µM

## Cn1cc(C2=C(c3ccc(Cl)cc3Cl)C(=O)NC2=O)c2ccccc21 [SB-216763]
DoTc2-4510
  IC50: > 10 µM
RD
  IC50: > 10 µM
NUGC-3
  IC50: > 10 µM
L-363
  IC50: > 10 µM
GAK
  IC50: > 10 µM
HCE-T
  IC50: > 10 µM
no-11
  IC50: > 10 µM
LCLC-97TM1
  IC50: > 10 µM
RCC10RGB
  IC50: > 10 µM
D-247MG
  IC50: > 10 µM
NCI-H2170
  IC50: > 10 µM
ES8
  IC50: > 10 µM
NCI-H747
  IC50: > 10 µM
TE-10
  IC50: > 10 µM
RXF 393
  IC50: > 10 µM
COLO-320-HSR
  IC50: > 10 µM
MDA-MB-157
  IC50: > 10 µM
ChaGo-K-1
  IC50: > 10 µM
ML-2
  IC50: > 10 µM
WM-115
  IC50: > 10 µM
KM12
  IC50: > 10 µM
MDA-MB-453
  IC50: > 10 µM
HOS
  IC50: > 10 µM
Daoy
  IC50: > 10 µM
MKN-28
  IC50: > 10 µM
ES6
  IC50: > 10 µM
SK-LMS-1
  IC50: > 10 µM
CAL-12T
  IC50: > 10 µM
BB65-RCC
  IC50: > 10 µM
H4
  IC50: > 10 µM
CAL-85-1
  IC50: > 10 µM
HCC70
  IC50: > 10 µM
LS-123
  IC50: > 10 µM
SF-295
  IC50: > 10 µM
A-427
  IC50: > 10 µM
HL-60
  IC50: > 10 µM
KNS-42
  IC50: > 10 µM
SCH
  IC50: > 10 µM
SK-UT-1
  IC50: > 10 µM
A704
  IC50: > 10 µM
MC-IXC
  IC50: > 10 µM
SHP77
  IC50: > 10 µM
NCI-H2405
  IC50: > 10 µM
CAL-33
  IC50: > 10 µM
SW1463
  IC50: > 10 µM
KNS-81-FD
  IC50: > 10 µM
NCI-H727
  IC50: > 10 µM
TE-1
  IC50: > 10 µM
AM-38
  IC50: > 10 µM
NCI-H1304
  IC50: > 10 µM
